From patent US8589175B2, “Optimization and individualization of medication selection and dosing” (Children's Hospital Medical Center, priority 2005, dated 2013)

Experiments:
CYP2C9 = assay: dosing recommendation per CYP2C9 metabolizer subgroup as percentage of usual population dose (Equations 4-6); design: species or system human; settings: for 1 al (effect of 1 non-functional allele) / 2 al (effect of 2 non-functional alleles) / 2 al/1 al: CYP2C9; for UM (%) dosing recommendation: CYP2C9, head prints UM; for UM (%) dosing recommendation / IM (%) dosing recommendation / PM (%) dosing recommendation: percent of usual dose; for 2 al/1 al: ratio of the two effects; for IM (%) dosing recommendation: CYP2C9 intermediate metabolizers; for PM (%) dosing recommendation: CYP2C9 poor metabolizers
Text: Determining “Minimal Dose Adjustment Units”
2C9 has 2 MDA units per non-functional allele.

CYP2C19 = assay: dosing recommendation per CYP2C19 metabolizer subgroup as percentage of usual population dose (Equations 4-6); settings: human
Text: Assuming the goal is to maintain the same AUC for all three subpopulations of patients, the following subpopulation dosing relationships hold: DPM=DEM*(AUCEM/AUCPM) OR DPM=DEM*R if R=(AUCEM/AUCPM) (Equation 2) DIM=DEM*(AUCEM/AUCIM) OR DIM=DEM*S if S=(AUCEM/AUCIM) (Equation 3)
By substituting equations 2 and 3 into equation 1, and then rearranging the equation to solve for the percent dose adjustment needed for each subgroup relative to the population dose: DEM(%)=100/(fEM+fIM*S+fPM*R) (Equation 4) DPM(%)=R*DEM (Equation 5) DIM(%)=S*DEM (Equation 6) Equations 4, 5, and 6 show how the dosing for the more homogeneous subgroups is determined and how the dosing results are expressed as a fraction of the clinician's usual heterogeneous whole group dosages. Determining “Minimal Dose Adjustment Units”
Example: The approach in the previous section leads to individualized initial drug dose recommendations for each of the 3 subgroups (extensive, poor and intermediate metabolizers). Each subgroup represents a specific number of functional alleles for the specific DME (extensive metabolizers have 2 functional, intermediate metabolizers have 1 functional and poor metabolizers have 0 functional). The resultant dosing recommendations are expressed as percentages of the clinician's usual starting dose. It is possible to investigate the effect of increasing numbers of non-functional alleles using these new dosing recommendations. For example, if DRX % is the dosing recommendation for subgroup X expressed as a percentage of the clinician's usual starting dose then the following are true: Effect of […] 1 non-functional allele=(DREM %−DRIM %)/DREM % Effect of 2 non-functional allele=(DREM %−DRPM %)/DREM % Below is a spreadsheet (Table 3) that examines this for CYP2D6, CYP2C19 and CYP2C9. […] 2C9 has 2 MDA units per non-functional allele.

CYP2D6 = settings: human

SMILES | 1 al (effect of 1 non-functional allele) (CYP2C9) | 2 al (effect of 2 non-functional alleles) (CYP2C9) | UM (%) dosing recommendation (CYP2C9) [%] | 2 al/1 al (CYP2C9) | IM (%) dosing recommendation (CYP2C9) [%] | PM (%) dosing recommendation (CYP2C9) [%] | 1 al (effect of 1 non-functional allele) (CYP2C19) | 2 al (effect of 2 non-functional alleles) (CYP2C19) | IM (%) dosing recommendation (CYP2C19) [%] | PM (%) dosing recommendation (CYP2C19) [%] | UM (%) dosing recommendation (CYP2C19) [%] | 1 al (effect of 1 non-functional allele) (CYP2D6) | 2 al (effect of 2 non-functional alleles) (CYP2D6) | 2 al/1 al (CYP2D6) | EM (%) dosing recommendation (CYP2D6) [%] | IM (%) dosing recommendation (CYP2D6) [%] | PM (%) dosing recommendation (CYP2D6) [%] | UM (%) dosing recommendation (CYP2D6) [%] | 2 al/1 al (CYP2C19)
CCC1=C(C)CN(C(=O)NCCc2ccc(S(=O)(=O)NC(=O)N[C@H]3CC[C@H](C)CC3)cc2)C1=O [Amaryl] | 0.42 | 0.83 | 120 | 2.00 | 70 | 20 |  |  |  |  |  |  |  |  |  |  |  |  | 
Cc1ccc(-c2cc(C(F)(F)F)nn2-c2ccc(S(N)(=O)=O)cc2)cc1 [Celebrex] | 0.30 | 0.65 | 100 | 2.17 | 70 | 35 |  |  |  |  |  |  |  |  |  |  |  |  | 
CC(=O)CC(c1ccccc1)c1c(O)c2ccccc2oc1=O (stereo not shown) [Coumadin] | 0.62 | 0.85 | 130 | 1.38 | 50 | 20 |  |  |  |  |  |  |  |  |  |  |  |  | 
CCCCc1nc(Cl)c(CO)n1Cc1ccc(-c2ccccc2-c2nn[nH]n2)cc1 [Cozaar] | 0.50 | 0.80 | 100 | 1.60 | 50 | 20 |  |  |  |  |  |  |  |  |  |  |  |  | 
CCCNC(=O)NS(=O)(=O)c1ccc(Cl)cc1 [Diabinese] | 0.58 | 0.83 | 120 | 1.43 | 60 | 20 |  |  |  |  |  |  |  |  |  |  |  |  | 
O=C1NC(=O)C(c2ccccc2)(c2ccccc2)N1 [Dilantin] | 0.36 | 0.64 | 110 | 1.75 | 70 | 40 |  |  |  |  |  |  |  |  |  |  |  |  | 

The next lines start with the values.

1 al (effect of 1 non-functional allele) (CYP2C9) | 2 al (effect of 2 non-functional alleles) (CYP2C9) | UM (%) dosing recommendation (CYP2C9) [%] | 2 al/1 al (CYP2C9) | IM (%) dosing recommendation (CYP2C9) [%] | PM (%) dosing recommendation (CYP2C9) [%] | 1 al (effect of 1 non-functional allele) (CYP2C19) | 2 al (effect of 2 non-functional alleles) (CYP2C19) | IM (%) dosing recommendation (CYP2C19) [%] | PM (%) dosing recommendation (CYP2C19) [%] | UM (%) dosing recommendation (CYP2C19) [%] | 1 al (effect of 1 non-functional allele) (CYP2D6) | 2 al (effect of 2 non-functional alleles) (CYP2D6) | 2 al/1 al (CYP2D6) | EM (%) dosing recommendation (CYP2D6) [%] | IM (%) dosing recommendation (CYP2D6) [%] | PM (%) dosing recommendation (CYP2D6) [%] | UM (%) dosing recommendation (CYP2D6) [%] | 2 al/1 al (CYP2C19) | SMILES
0.20 | 0.65 | 100 | 3.25 | 80 | 35 |  |  |  |  |  |  |  |  |  |  |  |  |  | CC(C)n1c(/C=C/[C@@H](O)C[C@@H](O)CC(=O)O)c(-c2ccc(F)cc2)c2ccccc21 (racemic) [Lescol]
 |  |  |  |  |  | 0.00 | 0.00 | 100 | 100 | 100 | 0.21 | 0.35 | 1.67 | 114 | 90 | 74 | 134 |  | CN1CCN2c3ccccc3Cc3ccccc3C2C1 (stereo not shown) [mianserin]
 |  |  |  |  |  | 0.25 | 0.51 | 82 | 54 | 110 | −0.16 | −0.32 |  | 92 | 107 | 121 | 77 | 2.00 | O=C(NCCN1CCOCC1)c1ccc(Cl)cc1 [moclobemide]
 |  |  |  |  |  | 0.14 | 0.29 | 90 | 75 | 105 | 0.00 | 0.01 |  | 100 | 100 | 99 | 100 | 2.00 | CN[C@H]1CC[C@@H](c2ccc(Cl)c(Cl)c2)c2ccccc21 [sertraline]
 |  |  |  |  |  | 0.53 | 0.59 | 62 | 45 | 111 | 0.31 | 0.72 | 2.35 | 131 | 91 | 37 | 178 | 1.12 | CC(CN(C)C)CN1c2ccccc2CCc2ccccc21 (stereo not shown) [trimipramine]
